This is an account of results in paper PMC5684323 (2017).

Assay [1] has as its system ESE2 RNA (NMR) (RNA, single strand) AAAAAGAAGGAAGG
The experiment in a line: 1H NMR titration. The conditions noted are these: 50 mM NaCl; 10 mM MES pH 5.5, 10% D2O, 310 K.

The subject of assay [2] is ESE2 (SPR) (RNA, single strand) AAAAAGAAGGAAGG
Nature of the assay: SPR (Biacore), immobilised RNA. Particulars: 150 mM NaCl, no Mg2+ (35 mM EDTA); 10 mM HEPES pH 7.4, 0.05% P20, 0.1% DMSO, 25 °C; 10 µM tested. On the technique in general: Surface plasmon resonance follows binding to a sensor surface in real time, without labels.

Assay [3] deals with STRN3 "ESE" (RNA, single strand) AAGAAGGAACGAAAGGGGAAGAAAGGGG
Nature of the assay: SPR (Biacore), immobilised RNA. The conditions noted are these: 150 mM NaCl, no Mg2+ (35 mM EDTA); 10 mM HEPES pH 7.4, 0.05% P20, 0.1% DMSO, 25 °C; 10 µM tested.

Assay [4] deals with Exon 7 (RNA, mRNA element) UACAGGGUUUUAGACAAAAUCAAAAAGAAGGAAGGUGCUCACAUUCCUUAAAUUAAGGAGUAAG
Nature of the assay: SPR (Biacore), immobilised RNA. The conditions noted are these: 150 mM NaCl, no Mg2+ (35 mM EDTA); 10 mM HEPES pH 7.4, 0.05% P20, 0.1% DMSO, 25 °C; 10 µM tested.

The structures appear in SMILES notation.

Regarding `Cc1cn2cc(-c3cc(=O)n4cc(N5CCN(C(=O)CCN)CC5)ccc4n3)cc(F)c2n1`, the binding result is listed as “yes” in assay [1], “weak” in assay [2] and “weak” in assay [3].
As to `Cc1cn2cc(-c3cc(=O)n4cc(N5CCN(C)CC5)ccc4n3)cc(F)c2n1`, the binding entry in assay [1], in assay [2], in assay [3] and in assay [4] was “yes” throughout.
